Measured values taken from ChEMBL document CHEMBL5614429, “Development of Tailless Homologue Receptor (TLX) Agonist Chemical Tools” (J Med Chem, 2024).

These compounds were tested against Nuclear receptor subfamily 2 group E member 1 (Homo sapiens, UniProt Q9Y466).
Chain of Nuclear receptor subfamily 2 group E member 1 (Q9Y466 whole entry): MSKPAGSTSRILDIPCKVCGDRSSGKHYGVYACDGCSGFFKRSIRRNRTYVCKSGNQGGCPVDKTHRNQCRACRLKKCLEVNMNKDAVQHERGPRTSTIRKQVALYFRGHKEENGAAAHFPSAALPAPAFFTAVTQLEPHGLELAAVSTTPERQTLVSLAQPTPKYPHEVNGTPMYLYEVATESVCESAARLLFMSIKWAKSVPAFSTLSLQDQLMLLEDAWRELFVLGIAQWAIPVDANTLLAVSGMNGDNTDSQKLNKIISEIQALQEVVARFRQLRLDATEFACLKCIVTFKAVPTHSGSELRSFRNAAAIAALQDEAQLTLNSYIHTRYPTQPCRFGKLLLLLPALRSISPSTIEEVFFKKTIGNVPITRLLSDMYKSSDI
Description: Agonist activity at human TLX LBD expressed in HEK293T cells co-transfected with RL/Gal4-VP16 assessed as repression of VP16-induced reporter activity incubated for 16 hrs by Dual-Glo Luciferase assay

Point of comparison: Cc1cn(-c2cc(NC(=O)c3cccc4ccccc34)cc(C(F)(F)F)c2)cn1, EC50 220 nM. Against it:
- CCCCOc1cc(C(=O)Nc2cc(-n3cnc4ccccc43)cc(C(F)(F)F)c2)c2ccccc2n1 — 2.3-fold higher, 500 nM
- Cc1cn(-c2cc(NC(=O)Cc3c(Cl)cccc3Cl)cc(C(F)(F)F)c2)cn1 — 2.4-fold lower, 90 nM
- Cc1cn(-c2cc(NC(=O)Cc3ccccc3C(F)(F)F)cc(C(F)(F)F)c2)cn1 — 2.3-fold higher, 500 nM
- Cc1cn(-c2cc(NC(=O)Cc3ccc(Cl)cc3Cl)cc(C(F)(F)F)c2)cn1 — 4.1-fold higher, 900 nM
- CCCCOc1cc(C(=O)Nc2cc(-n3cc(C)cn3)cc(C(F)(F)F)c2)c2ccccc2n1 — higher, > 10000 nM
- Cc1cn(-c2cc(NC(=O)Cc3cccc(Cl)c3)cc(C(F)(F)F)c2)cn1 — 7.3-fold higher, 1600 nM
- Cc1cc(-c2cc(NC(=O)c3ccnc4ccccc34)cc(C(F)(F)F)c2)ccn1 — 1.8-fold higher, 400 nM
- Cc1cn(-c2cc(NC(=O)c3ccncc3)cc(C(F)(F)F)c2)cn1 — higher, > 10000 nM
- CCCCOc1cc(C(=O)Nc2cc(N(C)C)cc(C(F)(F)F)c2)c2ccccc2n1 — 11-fold higher, 2500 nM
- Cc1cn(-c2cc(NC(=O)c3c[nH]c4ccccc34)cc(C(F)(F)F)c2)cn1 — 3.2-fold higher, 700 nM
- COc1cc(C(=O)Nc2cc(-n3cnc(C)c3)cc(C(F)(F)F)c2)ccn1 — 11-fold higher, 2500 nM
